According to ChEMBL document CHEMBL1201862, “PubChem BioAssay data set” (2004):
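Following 48 hours of exposure in 96-well plates, responses at five concentrations were used to interpolate endpoints linearly. Abbreviation: GI50, concentration required for 50% inhibition of growth.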 Calls of active or inactive are those of the source. Cut-off read from the data, not from the text of the source: active = GI50 up to about 1.1 µM and inactive = higher.

What was measured:
Experiment in all cases: NCI anticancer screen, dose series, 48 h
CCRF-CEM = system: CCRF-CEM
UACC-62 = system: UACC-62
MOLT-4 = system: MOLT-4
OVCAR-5 = system: OVCAR-5
NCI-H460 = system: NCI-H460
OVCAR-4 = system: OVCAR-4
HCC 2998 = system: HCC 2998
A498 = system: A498
OVCAR-8 = system: OVCAR-8
DMS-114 = system: DMS-114
NCI-H23 = system: NCI-H23
A549 = system: A549
HCT-116 = system: HCT-116
LOX IMVI = system: LOX IMVI
NCI-H522 = system: NCI-H522
SNB-19 = system: SNB-19
HOP-92 = system: HOP-92
SR = system: SR
Hs-578T = system: Hs-578T
MCF7 = system: MCF7

Row | Compound | GI50 (CCRF-CEM) | GI50 (UACC-62) | GI50 (MOLT-4) | GI50 (OVCAR-5) | GI50 (NCI-H460) | GI50 (OVCAR-4) | GI50 (HCC 2998) | GI50 (A498) | GI50 (OVCAR-8) | GI50 (DMS-114) | GI50 (NCI-H23) | GI50 (A549) | GI50 (HCT-116) | GI50 (LOX IMVI) | GI50 (NCI-H522) | GI50 (SNB-19) | GI50 (HOP-92) | GI50 (SR) | GI50 (Hs-578T) | GI50 (MCF7)
1 | CCC(C)(C)NS(=O)(=O)c1ccccc1 | > 100 µM (inactive) | > 100 µM (inactive) | > 100 µM (inactive) | > 100 µM (inactive) | > 100 µM (inactive) | > 100 µM (inactive) | > 100 µM (inactive) | > 100 µM (inactive) | > 100 µM (inactive) | > 100 µM (inactive) | > 100 µM (inactive) | > 100 µM (inactive) | > 100 µM (inactive) |  |  |  |  |  |  | 
2 | COc1ccc(CNc2cc(OC)cc(OC)c2)cc1 |  | 52 µM (inactive) | > 42.9 µM (inactive) |  | > 86.1 µM (inactive) | 68.9 µM (inactive) | > 87.1 µM (inactive) |  | > 82 µM (inactive) | 39.4 µM (inactive) | 40.6 µM (inactive) | 60.8 µM (inactive) | 52.4 µM (inactive) | 56.8 µM (inactive) | 23.1 µM (inactive) | > 100 µM (inactive) | 58.9 µM (inactive) |  |  | 
3 | CSC1(C)CC2C(CC1N1CCOCC1)C2(C)C (stereo not drawn) | > 100 µM (inactive) |  | > 100 µM (inactive) | > 100 µM (inactive) | > 100 µM (inactive) | > 100 µM (inactive) | > 100 µM (inactive) |  | > 100 µM (inactive) | > 100 µM (inactive) | > 100 µM (inactive) | > 100 µM (inactive) | > 100 µM (inactive) |  |  |  | 78.2 µM (inactive) |  |  | 
4 | O=c1c(O)cccn1C1OC(CO)C(O)C1O (stereo not drawn) | > 100 µM (inactive) | > 100 µM (inactive) |  | > 100 µM (inactive) | > 100 µM (inactive) | > 100 µM (inactive) | > 100 µM (inactive) | > 100 µM (inactive) | > 100 µM (inactive) | > 100 µM (inactive) | > 100 µM (inactive) | > 100 µM (inactive) | > 100 µM (inactive) | > 100 µM (inactive) | > 100 µM (inactive) | > 100 µM (inactive) | > 100 µM (inactive) |  |  | 
5 | COc1ccc(C[C@]23CCC(=O)N2CCc2cc(OC)c(O)cc23)cc1O | > 100 µM (inactive) | > 100 µM (inactive) | > 100 µM (inactive) | > 100 µM (inactive) | > 100 µM (inactive) | > 100 µM (inactive) | > 100 µM (inactive) | > 100 µM (inactive) | 30 µM (inactive) | > 100 µM (inactive) | > 100 µM (inactive) | > 100 µM (inactive) | > 100 µM (inactive) | > 100 µM (inactive) |  | > 100 µM (inactive) | > 100 µM (inactive) |  |  | 
6 | COc1cccc(-c2cc(=O)c3ccc(C)nc3[nH]2)c1 | 0.0459 µM (active) | 0.0436 µM (active) | 0.0741 µM (active) | 0.239 µM (active) | 0.0451 µM (active) | 3.78 µM (inactive) | 0.0715 µM (active) | 0.0405 µM (active) | 0.0847 µM (active) |  | 0.214 µM (active) | 0.0728 µM (active) | 0.0448 µM (active) | 0.0596 µM (active) | 0.0448 µM (active) | 0.0592 µM (active) | 0.0401 µM (active) | 0.016 µM (active) | 0.0687 µM (active) | 0.165 µM (active)
7 | COC(=O)C1OC(O[C@H]2CC[C@]3(C)[C@H]4CC=C5[C@@H]6CC(C)(C)CC[C@]6(C(=O)OC6OCC(O)C(O)C6OC6OC(C)C(OC7OCC(OC8OCC(O)C(O)C8O)C(O)C7O)C(O)C6O)[C@H](O)C[C@@]5(C)[C@]4(C)CC[C@H]3C2(C)C)C(O)C(O)C1O (stereo partly drawn) | 17.3 µM (inactive) | 3.29 µM (inactive) | 15.7 µM (inactive) | 2.77 µM (inactive) | 16 µM (inactive) | 9.31 µM (inactive) | 1.63 µM (inactive) | 2.03 µM (inactive) | 5.27 µM (inactive) |  | 2.43 µM (inactive) | 2.93 µM (inactive) | 2.19 µM (inactive) | 8.53 µM (inactive) | 2.66 µM (inactive) | 3.08 µM (inactive) | 1.91 µM (inactive) | 3.05 µM (inactive) | 6.15 µM (inactive) | 0.69 µM (active)
8 | COc1ccc2c(c1OC)C[C@@H]1c3c(cc4c(c3-2)OCO4)CCN1C | 20.3 µM (inactive) | 15.2 µM (inactive) | 24.3 µM (inactive) | 59 µM (inactive) | 32.1 µM (inactive) | 25.4 µM (inactive) | 21.3 µM (inactive) | 19.1 µM (inactive) | 30.1 µM (inactive) |  | 50.1 µM (inactive) | 40.2 µM (inactive) | 20.7 µM (inactive) | 15.3 µM (inactive) | 19.9 µM (inactive) | 42.9 µM (inactive) | 12.3 µM (inactive) | 31.5 µM (inactive) | 34.4 µM (inactive) | 16.6 µM (inactive)
